Reference: patent publication US20240417393A1, “CERTAIN 2,5-DIAZABICYCLO[4.2.0]OCTANES AS GLP-1 RECEPTOR MODULATORS” (ASTRAZENECA AB, priority 2021, published 2024)

What was measured:
human GLP-1R receptor = target: T1, human GLP-1R receptor (Homo sapiens, UniProt P43220, L260F); experiment: CHOK1 GLP-1R cAMP Assay (HTRF); assay type: cell-based; conditions: CHO-K1 cells stably expressing human GLP-1R (Leu260Phe variant), 20 min at rt
T1 construct: expressed in transfected cells; host or cells: CHO-K1 (ATCC CCL-61)
T1 sequence (P43220 24-463 L260F): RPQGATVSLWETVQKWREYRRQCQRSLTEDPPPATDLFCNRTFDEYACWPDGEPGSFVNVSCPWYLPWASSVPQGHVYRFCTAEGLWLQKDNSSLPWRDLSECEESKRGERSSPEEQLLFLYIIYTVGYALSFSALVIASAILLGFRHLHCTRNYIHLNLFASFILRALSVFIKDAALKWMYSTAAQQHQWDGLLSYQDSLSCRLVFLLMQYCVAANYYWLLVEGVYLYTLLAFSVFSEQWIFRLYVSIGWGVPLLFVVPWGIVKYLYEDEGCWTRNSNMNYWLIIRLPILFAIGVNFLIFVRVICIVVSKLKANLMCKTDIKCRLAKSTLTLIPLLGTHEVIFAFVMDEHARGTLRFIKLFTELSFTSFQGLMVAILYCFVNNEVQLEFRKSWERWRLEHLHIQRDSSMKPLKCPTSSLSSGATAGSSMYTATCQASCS
Protocol: A cell line stably expressing the human GLP-1R receptor (NM_002062.5, including the naturally-occurring variant Leu260Phe) in a CHO-K1 (ATCC® CCL-61™) was used for assay.
GLP-1 receptor mediated agonist activity was determined in a cell-based assay measuring cyclic adenosine monophosphate (cAMP) levels in cells using Homogeneous Time-Resolved Fluorescence (HTRF) cAMP detection kit (CisBio catalog #62AM4PEC, cAMP Gs Dynamic range kit). The cAMP detection method is based on a competitive immunoassay, in which cAMP produced by the cells and cAMP labeled with the dye d2 compete for binding to a Europium-Cryptate-labeled anti-cAMP antibody. The specific HTRF signal is inversely proportional to the concentration of cAMP.
Compounds were added to individual well in 384 well-assay plates (Greiner #784076) using an Echo (LabCyte) dispenser from 10 mM stocks. Varying concentration of compounds were added to wells, and DMSO was used to normalize each well to a volume of 100 nL. A dose response curve of GLP-1(7-36)NH2 (Bachem H-6795) was included in each run. 5 μL of cAMP concentration response standards are applied in specified wells in the assay plates. Cryo-preserved cells are thawed and resuspended in assay buffer pre-heated to 37° C. (20 mM 2-[4-(2-hydroxyethyl)piperazin-1-yl]ethanesulfonic acid (HEPES) pH 7.4, 1× Hank's Balanced Salt Solution (HBSS, Life Technologies #14065) supplemented with 0.1% (w/v) bovine serum albumin (Sigma, A-7030)). Cells were centrifuged at 250*g for 5 min at rt, and resuspended in room tempered assay buffer to a final density of 0.16*10^6 cell/mL, to deliver 800 cells/well. 5 μL of assay buffer with 1 mM 3-isobutyl-1-methylxanthin (IBMX; Sigma cat I-7018) was dispensed per well in assay plates using a multidrop combi (Thermo Scientific) subsequently 5 μL of cell suspension was distributed to relevant wells in the assay using a multidrop dispenser. Assay plates were incubated 20 min at rt.
Detection reagents, Europium-Cryptate-labeled anti-cAMP antibody and cAMP labeled with the dye d2, are diluted in lysis buffer, provided by the manufacturer. 5 μL of each detection reagent is supplemented to each assay well using a multidrop dispenser. Assay plates are incubated in the dark for at least one h. The HTRF signal is measured using the HTRF module (excitation: 337 nm, emission A: 665 nm and emission B: 620 nm) in Pherastar FSX (BMG Labtech).
Raw data were converted to pM cAMP using the cAMP standard curve included in each run. Converted data were further analyzed in Genedata Screener (Genedata) and EC50 determinations were made from agonist dose-response curves analyzed with a curve fitting is program using a 4-parameter logistic dose response equation (Equation y=A+((B-A)/1+((C/x)^D))) where A is no stimulation, B is full stimulation, C is the EC50 and D is the Hill slope). The percent effect was determined relative to a saturating concentration of a full GLP-1R agonist (GLP-1(7-36)NH2 has 100% effect in this assay setup).

[1] = target: T2, GLP-1R in a pancreatic insulinoma cell line (EndoC-PH1) (Homo sapiens, UniProt P43220); experiment: EndoC cAMP Accumulation Assay (HTRF); assay type: cell-based; conditions: EndoC-PH1 human pancreatic beta cell line, endogenous GLP-1R, 30 min at rt
T2 construct: host or cells: EndoC-βH1 human pancreatic beta cell line
T2 sequence (P43220 24-463): as the sequence (P43220 24-463 L260F) above, with F237L counted along it
Description: EndoC cAMP Accumulation Assay
A HTRF cAMP assay (cAMP Gs dynamic kit; CisoBio Cat #62AM4PEJ) was used to identify agonists of GLP-1R in a pancreatic insulinoma cell line (EndoC-PH1). […] EndoC-PHlcells have detectable GLP-1R messenger ribonucleic acid (mRNA) as detected by quantitative polymerase chain reaction (qPCR). […] The EndoC-PH1 cell line is a valid model of human beta cells and applicable for screenings to identify novel drug target candidates (Mol. Metab., 2018, 8, 144-157). CisBio HTRF cAMP kits are based on a competitive immunoassay using cryptate-labelled anti-cAMP antibody and d2-labeled cAMP. The detection kit is intended for the direct is quantitative determination of cAMP. The specific signal (i.e. energy transfer) is inversely proportional to the concentration of cAMP in the standard or sample. Test compounds (10 mM in DMSO) were diluted into assay buffer (HBSS (Sigma #H8264) supplemented with 25 mM HEPES (Gibco #15630, pH 7.4), 0.1% BSA (Sigma #A3059) and 0.5 mM IBMX (Sigma #I7018) included fresh on the day of the assay) into 96 well U-bottom plates (Greiner #650201). Diluted compounds were transferred to ECHO source polypropelene plates (Labcyte #P-05525) and dose response curves were dispensed acoustically using ECHO 550 into black shallow-well u-bottom 384-well HTRF Assay Plates (Corning 4514). Cryovials of EndoC-H1 (supplied at 1×10e^7 cells/vial) were used directly for screening. The cryovials and were removed from N2(1) and thawed rapidly in a 37° C. water bath. The cells were resuspended in assay buffer and centrifuged at 300 g for 5 min. Cells were resuspended in assay buffer at the appropriate concentration, typically at 12e5 cells per mL (3000 cells per well, dependent on cell batch) and 2.5 μL diluted cells were added to all wells of destination plate by Multidrop combi reagent dispenser (Thermofisher). The plates were incubated at rt for 30 min. The assay was stopped by adding 2.5 μL anti-cAMP cryptate solution to all wells and 2.5 μL cAMP-d2 solution (both diluted 1:20 in lysis buffer) to columns 1-22 by Combi drop. A volume of 2.5 μL cAMP-d2 solution was added to wells E23 to P24 and 2.5 μL lysis buffer added to wells A23 to D24 by multichannel pipette. The plates were incubated at rt for 1 h and read on an Envision plate reader using excitation wavelength of 320 nm and emission of […] and 660 nm.
Raw data from Envision is converted to % DeltaF according to the manufacturer's instructions. Dose response curves are analysed via 4-Parameter Logistical Analysis and assay plate Z’ values obtained. Samples are graphed as percentage (%) activation plots compared to […] with assay window defined by negative control as basal cell is cAMP levels and positive control are defined by maximum GIP (82.5 nM) signal. GLP-1 (7-36 amide, Bachem H-6795) dose response curve was included on all plates.

Structure (SMILES) | EC50 (human GLP-1R receptor) [nM] | EC50 [1] [nM]
C[C@]1(c2ccc(Cl)cc2F)Oc2cccc(N3CCN(Cc4nc5ccc(C(=O)O)cc5n4C[C@@H]4CCO4)[C@H]4CC[C@@H]43)c2O1 (single isomer, unassigned) [Example 21b, 2-(((1R*,6R*)-5-((R*)-2-(4-Chloro-2-fluorophenyl)-2-methylbenzo[d][1,3]dioxol-4-yl)-2,5-diazabicyclo[4.2.0]octan-2-yl)methyl)-1-(((S)-oxetan-2-yl)methyl)-1H-benzo[d]imidazole-6-carboxylic acid] | 340 | 2200
C[C@]1(c2ccc(Cl)cn2)Oc2cccc(N3CCN(Cc4nc5c(F)cc(C(=O)O)cc5n4CC4(CC#N)CC4)[C@H]4CC[C@@H]43)c2O1 (single isomer, unassigned) [Example 23d] | 11 | 7.6
COc1cc(C(=O)O)cc2c1nc(CN1CCN(c3cccc4c3O[C@@](C)(c3ccc(Cl)cn3)O4)[C@H]3CC[C@@H]31)n2CC1(C#N)CC1 (single isomer, unassigned) [Example 25a] | 130 | 260
COc1cc(C(=O)O)cc2c1nc(CN1CCN(c3cccc4c3O[C@@](C)(c3ccc(Cl)cn3)O4)[C@H]3CC[C@@H]31)n2CCOC1CC1 (relative stereo) [Example 27, rel-2-(((1R,6R)-5-((R)-2-(5-Chloropyridin-2-yl)-2-methylbenzo[d][1,3]dioxol-4-yl)-2,5-diazabicyclo[4.2.0]octan-2-yl)methyl)-1-(2-cyclopropoxvethyl)-4-methoxy-1H-benzo[d]imidazole-6-carboxylic acid] | 65 | 200
COc1cc(C(=O)O)cc2c1nc(CN1CCN(c3cccc4c3O[C@@](C)(c3ccc(Cl)cn3)O4)[C@H]3CC[C@@H]31)n2C[C@@H]1CCCO1 (single isomer, unassigned) [Example 7a, 2-(((1R*,6R*)-5-((R*)-2-(5-Chloropyridin-2-yl)-2-methylbenzo[d][1,3]dioxol-4-yl)-2,5-diazabicyclo[4.2.0]octan-2-yl)methyl)-4-methoxy-1-(((S)-tetrahydrofuran-2-yl)methyl)-1H-benzo[d]imidazole-6-carboxylic acid] | 27 | 72
COc1cc(C(=O)O)cc2c1nc(CN1CCN(c3cccc4c3O[C@@](C)(c3ccc(Cl)cn3)O4)[C@H]3CC[C@@H]31)n2CC1(C#N)CC1 (single isomer, unassigned) [Example 25d] | 36 | 74
C[C@]1(c2ccc(Cl)cn2)Oc2cccc(N3CCN(Cc4nc5c(Cl)cc(C(=O)O)cc5n4C[C@@H]4CCO4)[C@H]4CC[C@@H]43)c2O1 (single isomer, unassigned) [Example 3a, 4-Chloro-2-(((1R*,6R*)-5-((R*)-2-(5-chloropyridin-2-yl)-2-methylbenzo[d][1,3]dioxol-4-yl)-2,5-diazabicyclo[4.2.0]octan-2-yl)methyl)-1-(((S)-oxetan-2-yl)methyl)-1H-benzo[d]imidazole-6-carboxylic acid] | 220 | 4400
C[C@]1(c2ccc(Cl)cc2F)Oc2cccc(N3CCN(Cc4nc5ccc(C(=O)O)cc5n4C[C@@H]4CCO4)[C@H]4CC[C@H]43)c2O1 (single isomer, unassigned) [Example 18b, 2-((1R*,6S*)-5-(R*)-2-(4-Chloro-2-fluorophenyl)-2-methylbenzo[d][1,3]dioxol-4-yl)-2,5-diazabicyclo[4.2.0]octan-2-yl)methyl)-1-(((S)-oxetan-2-yl)methyl)-1H-benzo[d]imidazole-6-carboxylic acid] | 120 | 480

Stronger by EC50 (human GLP-1R receptor), values ahead:

EC50 (human GLP-1R receptor) [nM] | EC50 [1] [nM] | Structure (SMILES)
6.2 | 6.6 | COc1cc(C(=O)O)cc2c1nc(CN1CCN(c3cccc4c3O[C@@](C)(c3ccc(Cl)cn3)O4)[C@@H]3CC[C@@H]31)n2C[C@@H]1CCCO1 (single isomer, unassigned) [Example 8a]
5.3 | 18 | C[C@]1(c2ccc(Cl)cn2)Oc2cccc(N3CCN(Cc4nc5ccc(C(=O)O)cc5n4C[C@@H]4CCO4)[C@H]4CC[C@@H]43)c2O1 (single isomer, unassigned) [Example 22b, 2-(((1R*,6R*)-5-((R*)-2-(5-Chloropyridin-2-yl)-2-methylbenzo[d][1,3]dioxol-4-yl)-2,5-diazabicyclo[4.2.0]octan-2-yl)methyl)-1-(((S)-oxetan-2-yl)methyl)-1H-benzo[d]imidazole-6-carboxylic acid]
4.7 | 8.6 | C[C@]1(c2ccc(Cl)cn2)Oc2cccc(N3CCN(Cc4nc5ccc(C(=O)O)cc5n4C[C@@H]4CCO4)[C@H]4CC[C@H]43)c2O1 (single isomer, unassigned) [Example 5d, 2-((1R*,6S*)-5-(R*)-2-(5-Chloropyridin-2-yl)-2-methylbenzo[d][1,3]dioxol-4-yl)-2,5-diazabicyclo[4.2.0]octan-2-yl)methyl)-1-(((S)-oxetan-2-yl)methyl)-1H-benzo[d]imidazole-6-carboxylic acid]
2.1 | 8 | C[C@]1(c2ccc(Cl)cn2)Oc2cccc(N3CCN(Cc4nc5c(F)cc(C(=O)O)cc5n4CC4(C#N)CC4)[C@H]4CC[C@@H]43)c2O1 (single isomer, unassigned) [Example 24b]
0.98 | 3.3 | C[C@]1(c2ccc(Cl)cc2F)Oc2cccc(N3CCN(Cc4nc5ccc(C(=O)O)cc5n4C[C@@H]4CCO4)[C@H]4CC[C@H]43)c2O1 (single isomer, unassigned) [Example 18a, 2-(((1R*,6S*)-5-((R*)-2-(4-Chloro-2-fluorophenyl)-2-methylbenzo[d][1,3]dioxol-4-yl)-2,5-diazabicyclo[4.2.0]octan-2-yl)methyl)-1-(((S)-oxetan-2-yl)methyl)-1H-benzo[d]imidazole-6-carboxylic acid]
